In patent publication US20260176253A1 (priority 2021, published 2026):

Columns and labels:
5-HT2A [1] = target: T1, 5-HT2A (Homo sapiens, UniProt P28223); assay: Serotonin 5-HT2A in vitro radioligand binding competition assay ([3H]-DOI); parameters: purchased Epics Therapeutics S. A. (Belgium), contract assay FAST-0505B; host or cells: membrane extracts; settings: [3H]-DOI competition, membrane extracts; read-out: 5HT2A R[…] ACTIVITY
Procedure: Serotonin 5-HT2AIn Vitro Radioligand Binding Competition Assay. The 5-HT2A radioligand binding competition assay was performed at Epics Therapeutics S. A. (Belgium, FAST-0505B) using conventional methods. Briefly, competition binding is performed in duplicate in the wells of a 96 well plate (Master Block, Greiner, 786201) containing binding buffer (optimized for each receptor), membrane extracts (amount of protein/well optimized for each receptor), radiotracer [3H]-DOI (final concentration optimized for each receptor) and test compound. Nonspecific binding was determined by co-incubation with 200-fold excess of cold competitor. The samples were incubated in a final volume of 0.1 ml at a temperature and for a duration optimized for each receptor and then filtered over filter plates. Filters were washed six times with 0.5 ml of ice-cold washing buffer (optimized for each receptor) and 50 µl of Microscint 20 (Packard) were added in each well. The plates were incubated 15 min on an orbital shaker and then counted with a TopCount™ for 1 min/well.

5-HT2A [2] = target: T1, 5-HT2A; assay: Serotonin 5-HT2A in vitro cellular IPOne agonism assay (HTRF); assay type: cell-based; parameters: host or cells: CHO-K1; settings: CHO-K1 cells, 60 min
Procedure: (§1) Serotonin 5-HT2AIn Vitro Cellular IPOne Agonism Assay. The 5-HT2AIPOne HTRF assay was performed at Epics Therapeutics S. A. (Belgium, FAST-0505I) using conventional methods. Briefly, CHO—K1 cells expressing human recombinant 5-HT2A receptor grown to mid-log phase in culture media without antibiotics were detached with PBS-EDTA, centrifuged, and resuspended in medium without antibiotics buffer. 20,000 cells were distributed in a 96 well plate and incubated overnight at 37° C. with 5% Co2.
For agonist testing, the medium was removed and 20 μl of assay buffer plus 20 μl of test compound or reference agonist were added in each well. The plate was incubated for 60 min. at 37° C. with 5% CO2.
(§2) After addition of the lysis buffer containing IP1-d2 and anti-IP1 cryptate detection reagents, plates were incubated 1-hour at room temperature, and fluorescence ratios were measured according to the manufacturer specification, with the HTRF kit.

rat cortical neurons = assay: Neurite outgrowth in primary neuronal cultures assay; assay type: cell-based; parameters: key: A: Statistically significant mean increase as a percent of DMSO control at 10 μM or less; B: No statistically significant mean increase as a percent of DMSO control at 10 μM or less; settings: 72h, vs DMSO control, 10 μM or less
Description: Neurite Outgrowth Assay. Neurite Outgrowth in Primary Neuronal Cultures Assay. Changes in the pattern of neurite outgrowth have been implicated in psychiatric and neurodegenerative disorders as well as traumatic injuries. The discovery of new compounds that can positively affect neuritogenesis are important for developing new therapeutics for neurological diseases. Measurement of neurite outgrowth of rat cortical neurons using an automated image-based assay was used to determine the neuroplastic effects of the compounds of the present disclosure. The neurite outgrowth assay was performed at Neurofit SAS (France) as described below.
Pregnant Wistar rats (Janvier; France) were used for the study. They were delivered 6 days before their use. Upon arrival at Neurofit animal facility, they were housed one per cage and maintained in a room with controlled temperature (21-22° C.) and a reversed light-dark cycle (12 h/12h; lights on: 17:30-05:30; lights off: 05:30-17:30) with food and water available ad libitum.
Female Wistar rats of 17 days gestation were killed by cervical dislocation and the fetuses were removed from the uterus. Their brains were placed in ice-cold medium of Leibovitz (L15, Gibco, Fisher bioblock, France). Cortices were dissected and meninges were carefully removed. The cortical neurons were dissociated by trypsinization for 30 min at 37° C. (trypsin-EDTA, Gibco) in presence of 0.1 mg/ml DNAse I (Roche, France). The reaction was stopped by addition of Dulbecco's Modified Eagle Medium (DMEM; Gibco) with 10% of fetal bovine serum (FBS; Gibco). The suspension was triturated with a 10-ml pipette and using a needle syringe 21G and centrifuged at 350×g for 10 min at room temperature. The pellet of dissociated cells was resuspended in a medium consisting of Neurobasal (Gibco) supplemented with 2% B27 supplement (Gibco), 0.5 mM L-Glutamine (Gibco), an antibiotic-antimicotic mixture. Viable cells were counted in a Neubauer cytometer using the trypan blue exclusion test (Sigma). Cells were seeded at a density of 10000 cells per well in 96-well plate (Costar) precoated with poly-L-lysine. Test compound at different concentrations were added to the cultures. Donepezil (positive control) was tested at 250 nM.
After 72h (3 days) of plating, cultures were fixed with paraformaldehyde in PBS (4%, Sigma) for 30 min at 4° C. Then, cells were successively permeabilized with 0.1% Triton X100 for 30 min, saturated with PBS containing 3% of BSA and were incubated 1 h with anti-beta III tubulin antibody (Sigma) at 1/10 000 in PBS containing 0.5% of BSA. Cells were washed three times with PBS containing 0.5% of BSA, and they were incubated 1 h with goat anti-mouse antibody coupled with AF488 (Invitrogen A11001) diluted at 1/1000 in PBS containing 0.5% of BSA. Finally, nuclei were staining with DAPI 1 mg/ml at 1/1000 in PBS containing 0.5% of BSA. After rinsing with PBS, the plate was filmed and neurite networks were examined and analyzed using High-Content Screening (CellInsight, Thermo Scientific). The average number of neurites per neuron and the average total length of neurites per neuron were the main parameters analyzed. Analysis of data was performed using analysis of variance (ANOVA). The Fisher's Protected Least Significant Difference test was used for multiple comparisons. A p value ≤0.05 was considered significant. The software used is StatView 5.0 from SAS Institut.

5-HT2A [3] = target: T1, 5-HT2A; assay: Serotonin 5-HT2A in vitro cellular IPOne antagonism assay (HTRF); assay type: cell-based; parameters: host or cells: CHO-K1; settings: CHO-K1 cells, reference agonist a-Me-5HT
Procedure: as §1, with “Antagonism” for “Agonism”, “FAST-0505I) in antagonism mode” for “FAST-0505I)”
For antagonist testing, a reference agonist a-Me-5HT was added and fluorescence signal monitored for several minutes, followed by addition of 20 μl of assay buffer plus 20 μl of test compound or reference antagonist ketanserin, in each well. The plate was incubated for 60 min. at 37° C. with 5% CO2.
as §2

T1 sequence (P28223 whole entry): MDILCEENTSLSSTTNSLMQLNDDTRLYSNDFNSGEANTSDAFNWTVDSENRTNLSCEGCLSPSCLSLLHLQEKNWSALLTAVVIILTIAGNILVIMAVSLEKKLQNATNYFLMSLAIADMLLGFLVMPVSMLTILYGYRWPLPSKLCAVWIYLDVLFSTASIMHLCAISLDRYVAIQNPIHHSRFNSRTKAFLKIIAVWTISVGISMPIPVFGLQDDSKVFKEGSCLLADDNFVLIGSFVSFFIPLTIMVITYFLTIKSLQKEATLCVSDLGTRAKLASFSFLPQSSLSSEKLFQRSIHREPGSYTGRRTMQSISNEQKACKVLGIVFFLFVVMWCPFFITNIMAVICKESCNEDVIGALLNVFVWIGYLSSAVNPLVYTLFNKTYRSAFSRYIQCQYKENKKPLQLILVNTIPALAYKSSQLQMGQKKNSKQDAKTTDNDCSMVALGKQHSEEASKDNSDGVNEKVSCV

SMILES | IC50 (5-HT2A [1]) [µM] | EC50 (5-HT2A [2]) [µM] | INCREASE IN NEURITE BRANCHING (rat cortical neurons) | INCREASE IN NEURITE LENGTH (rat cortical neurons) | INCREASE IN NEURITE NUMBER (rat cortical neurons) | IC50 (5-HT2A [3]) [µM]
COc1ccc2c3c([nH]c2c1)CCN1CCCC1C3 (centres unmarked) [Compound 1, 9-methoxy-1,2,3,5,6,7,12,12a-octahydropyrrolo[1′,2′:1,7]azepino[4,5-b]indole] | 1 to 10 | > 10 | B | B | B | 
COc1ccc2c3c([nH]c2c1)CC1CCCN1CC3 (centres unmarked) [Compound 2, 9-methoxy-1,2,3,5,6,11,12,12a-octahydropyrrolo[1′,2′:1,2]azepino[4,5-b]indole] | > 10 | > 10 | A | A | B | 
Cn1c2c(c3ccccc31)CCN1CCCC1C2 (centres unmarked) [Compound 3, 11-methyl-1,2,3,5,6,11,12,12a-octahydropyrrolo[1′,2′:1,2]azepino[4,5-b]indole] | 0.101 to 1 | 1 to 10 | B | A | B | 0.101 to 1
c1ccc2c3c([nH]c2c1)CC1CCCN1CC3 (centres unmarked) [Compound 4, 1,2,3,5,6,11,12,12a-octahydropyrrolo[1′,2′;1,2]azepino[4,5-b]indole] | 0.101 to 1 | 0.101 to 1 | A | A | A | 0.101 to 1
COc1cccc2[nH]c3c(c12)CC1CCCN1CC3 (centres unmarked) [Compound 5, 11-methoxy-1,2,3,5,6,7,12,12a-octahydropyrrolo[1′,2′:1,7]azepino[4,5-b]indole] | 1 to 10 | 1 to 10 | B | A | B | 
Cn1c2c(c3ccccc31)CC1CCCN1CC2 (centres unmarked) [Compound 6, 7-methyl-1,2,3,5,6,7,12,12a-octahydropyrrolo[1′,2′:1,7]azepino[4,5-b]indole] | 0.101 to 1 | > 10 | B | A | B | 0.101 to 1
c1ccc2c3c([nH]c2c1)CCN1CCCC1C3 (centres unmarked) [Compound 7, 1,2,3,5,6,7,12,12a-octahydropyrrolo[1′,2′:1,7]azepino[4,5-b]indole] | 0.101 to 1 | 1 to 10 | A | A | A | 0.101 to 1
FC(F)(F)c1ccc2c3c([nH]c2c1)CC1CCCN1CC3 (centres unmarked) [Compound 12, 9-(trifluoromethyl)-1,2,3,5,6,11,12,12a-octahydropyrrolo[1′,2′:1,2]azepino[4,5-b]indole] | 1 to 10 | > 10 | A | A | B | 
FC(F)(F)Oc1ccc2c3c([nH]c2c1)CC1CCCN1CC3 (centres unmarked) [Compound 13, 9-(trifluoromethoxy)-1,2,3,5,6,11,12,12a-octahydropyrrolo[1′,2′;1,2]azepino[4,5-b]indole] | 1 to 10 | > 10 | B | A | B | 0.101 to 1
COc1ccc2c3c([nH]c2c1)C[C@@H]1CCCN1CC3 [Compound 17, (S)-9-methoxy-1,2,3,5,6,11,12,12a-octahydropyrrolo[1′,2′:1,2]azepino[4,5-b]indole] | > 10 | > 10 | A | A | A | > 10
COc1ccc2c3c([nH]c2c1)C[C@H]1CCCN1CC3 [Compound 18, (R)-9-methoxy-1,2,3,5,6,11,12,12a-octahydropyrrolo[1′,2′:1,2]azepino[4,5-b]indole] | > 10 | > 10 | A | A | A | 0.101 to 1
c1ccc2c3c([nH]c2c1)C[C@@H]1CCCN1CC3 [Compound 19, (S)-1,2,3,5,6,11,12,12a-octahydropyrrolo[1′,2′:1,2]azepino[4,5-b]indole] | 0.101 to 1 | 0.101 to 1 | A | A | A | 0.101 to 1
c1ccc2c3c([nH]c2c1)C[C@H]1CCCN1CC3 [Compound 20, (R)-1,2,3,5,6,11,12,12a-octahydropyrrolo[1′,2′:1,2]azepino[4,5-b]indole] | 0.101 to 1 | 0.101 to 1 | A | A | A | 1 to 10
FC(F)(F)c1cccc2[nH]c3c(c12)CCN1CCCC1C3 (centres unmarked) [Compound 21, 7-(trifluoromethyl)-1,2,3,5,6,11,12,12a-octahydropyrrolo[1′,2′:1,2]azepino[4,5-b]indole] | 1 to 10 | > 10 | A | A | B | 0.101 to 1
c1ccc2c3c([nH]c2c1)CCN1CCC[C@@H]1C3 [Compound 22, (R)-1,2,3,5,6,7,12,12a-octahydropyrrolo[1′,2′:1,7]azepino[4,5-b]indole] | 1 to 10 | 0.101 to 1 | A | A | A | 0.101 to 1
